What was measured:
Calvarial cell = experiment: Cytotoxicity test (MTT) in osteoblasts (calvarial cells); settings: 1 μM, 72 hours, vs vehicle control
Description: Drugs were diluted to a concentration of 2 μM in α-MEM culture media supplemented with 10% FBS. The vehicle control group was established to contain 0.2% DMSO. 100 μL/well of the diluted drugs were dispensed into 96-well plates to which osteoblasts (calvarial cells) prepared in Experimental Example 1 were then added at a density of 1.0×10^4 cells/100 μL/well. Here, the final compound concentration in the cell culture was 1 μM, and the vehicle control group contained 0.1% DMSO. The cells were cultured in a 5% CO2 inhibitorr at 37° for 72 hours. 25 μL of 3-(4,5-dimethyl-2-thiazolyl)-2,5-diphenyl-2H-tetrazolium bromide (MTT) dissolved in PBS (2 mg/mL) was added to each cell culture 4 hours before the end of culture. After completion of the reaction, the plates were centrifuged, the media were discarded, and 100 μL of formazan was added and dissolved in dimethyl sulfoxide (DMSO). Finally, the absorbance of the developed plates was measured at 540 nm. The cell viability was expressed as % concentration in comparison with the vehicle control group.

[1] = system: osteoclastogenesis (formation of multinucleated osteoclasts); experiment: Osteoclastogenesis inhibition via co-culture system (bone marrow cells + osteoblasts, TRAP staining); format: cell-based, mouse; settings: Mus musculus, Osteoclast, 168 h, 7 days co-culture, vs vehicle control
Description: Osteoclastogenesis inhibitory effects of the compounds of the present invention were evaluated via a co-culture system (Reference: Endocrinology 137(1996), 2187 to 2190, E. Jimi et al.). A specific experimental method is as follows.
1) Preparation of Bone Marrow Cells and Osteoblasts
Femur and tibia were aseptically dissected from 6 to 8-week-old male ddY mice to harvest bone marrow cells by a conventional method using a syringe. In brief, tissues were removed from the dissected bone, the bone ends were cut off with scissors, and the bone marrow was isolated by pushing a medium-containing syringe (23G) against the one end of the cut bone. The isolated bone marrow was subjected to repeated piston movement of a syringe such that single cells were obtained (Reference: Endocrinology 123(1988), 2600 to 2602, Takahashi et al.). After removal of red blood cells within the bone marrow, the bone marrow cells recovered by centrifugation were placed in an α-MEM supplemented with 10% fetal bovine serum (FBS), followed by counting of nucleated cells and then were immediately used for a co-culture system.
For the preparation of osteoblasts (Calvarial cells), the cranial bone were aseptically dissected from 1 to 2-day-old neonatal ICR mice and subjected to continuous reaction with a 0.2% collagenase solution to separate osteoblasts. The cell-suspended supernatant was centrifuged to recover osteoblasts which were grown to full confluence in an α-MEM supplemented with 10% FBS and then diluted to a desired cell density for use in the experiment.
2) Osteoclastogenesis Inhibition Experiment Via Co-Culture System
As the medium used for a co-culture system, a differentiation medium with the addition of differentiation factors 1α,25-dihydroxyvitamin D3 (10^−8M) and dexamethasone (10^−8M) to α-MEM supplemented with 10% FBS was used for the induction of osteoclastogenesis. First, the compounds of the present invention dissolved in dimethyl sulfoxide (DMSO) at a concentration of 1 mM were diluted to 2 μM using the above-mentioned differentiation medium. As a vehicle control group, 0.2% (v/v) DMSO was added to the medium. 100 μL/well of each medium was added to 96-well plates. In addition, the above prepared bone marrow cells and osteoblasts were plated onto 96-well plates at a density of 1×10^5 cells/50 μL/well and 3×10^3 cells/50 μL/well, respectively. The total volume/well was 200 μL and the final compound concentration was 1 μM. The control group was 0.1% (v/v) DMSO. The cells were cultured with exchange of the culture media with fresh media containing differentiation factors and test materials (materials containing the compounds of the present invention) at an interval of 2 to 3 days.
7 days after culturing of cells, the formation of multinucleated osteoclasts was confirmed by microscopic examination, the medium was removed from the wells and then the cells were fixed in a 10% phosphate-buffered formalin solution. The degree of formation of mature osteoclasts was measured taking advantage of the characteristics of osteoclasts showing a positive reaction to a tartrate-resistant acid phosphatase (TRAP) staining solution. The TRAP staining solution was prepared in a manner such that naphthol AS-MS phosphate as a substrate and a coloring agent (Fast Red Violet LB salt) were dissolved in N,N-dimethylformamide, and a 0.1N NaHCO3 buffer solution containing 50 mM of tartaric acid was added thereto. Among the TRAP-positive cells under a light microscope, multinucleated osteoclasts having 6 to 7 nuclei were regarded as mature osteoclasts.
The degree of inhibition of osteoclastogenesis was calculated according to the following equation 1. The results are summarized in Table 2 below (Experiments were carried out for 4 wells/experimental group (n=4), and the results are given in terms of mean±standard deviation) […]

Compound: O=[N+]([O-])c1ccc(NCc2cccnc2)nc1Nc1ccc2cn[nH]c2c1 [Compound 46, 2-(1H-indazo-6-yl)amino-6-[(3-pyridyl)methylamino]-3-nitropyridine]
- Cell viability (%) Calvarial cell (Calvarial cell): 99%

Compound: NC1CCN(c2ccc([N+](=O)[O-])c(Nc3ccc4[nH]ncc4c3)n2)CC1 [Compound 51, 2-(1H-indazol-5-yl)amino-6-[(4-amino)piperidino]-3-nitropyridine]
- Cell viability (%) Calvarial cell (Calvarial cell): 73%

Compound: Cc1cncn1-c1ccc([N+](=O)[O-])c(Nc2ccc3[nH]ncc3c2)n1 [Compound 4, 2-(1H-indazol-5-yl)amino-6-(5-methylimidazol-1-yl)-3-nitropyridine]
- inhibition at 1 µM [1]: 67%
- Cell viability (%) Calvarial cell (Calvarial cell): 101%

Compound: C[C@@H](CO)Nc1ccc([N+](=O)[O-])c(Nc2ccc3[nH]ncc3c2)n1 [Compound 36, 2-(1H-indazol-5-yl)amino-6-[(1-(S)-methyl-2-hydroxyethyl)-amino]-3-nitropyridine]
- inhibition at 1 µM [1]: 72%
- Cell viability (%) Calvarial cell (Calvarial cell): 103%

Compound: O=[N+]([O-])c1ccc(N2CCNCC2)nc1Nc1ccc2cn[nH]c2c1 [Compound 38, 2-(1H-indazol-6-yl)amino-6-(piperazin-1-yl)-3-nitropyridine]
- inhibition at 1 µM [1]: 90%
- Cell viability (%) Calvarial cell (Calvarial cell): 91%

Compound: CC(C)(C)NNc1ccc([N+](=O)[O-])c(Nc2ccc3[nH]ncc3c2)n1 [Compound 43, 2-(1H-indazol-5-yl)amino-6-[(t-butylamino)amino]-3-nitropyridine]
- Cell viability (%) Calvarial cell (Calvarial cell): 100%

Compound: C[C@@H](CO)Nc1ccc([N+](=O)[O-])c(Nc2ccc3cn[nH]c3c2)n1 [Compound 18, 2-(1H-indazol-6-yl)amino-6-[(1-(S)-methyl-2-hydroxyethyl)-amino]-3-nitropyridine]
- Cell viability (%) Calvarial cell (Calvarial cell): 98%

Compound: O=[N+]([O-])c1ccc(NCc2ccncc2)nc1Nc1ccc2[nH]ncc2c1 [Compound 47, 2-(1H-indazol-5-yl)amino-6-[(4-pyridyl)methylamino]-3-nitropyridine]
- inhibition at 1 µM [1]: 71%
- Cell viability (%) Calvarial cell (Calvarial cell): 102%

Compound: O=[N+]([O-])c1ccc(NCCc2c[nH]cn2)nc1Nc1ccc2[nH]ncc2c1 [Compound 48, 2-(1H-indazol-5-yl)amino-6-[(imidazol-4-yl)ethylamino]-3-nitropyridine]
- Cell viability (%) Calvarial cell (Calvarial cell): 96%

Compound: CNc1ccc([N+](=O)[O-])c(Nc2ccc3cn[nH]c3c2)n1 [Compound 31, 2-(1H-indazol-6-yl)amino-6-(methylamino)-3-nitropyridine]
- Cell viability (%) Calvarial cell (Calvarial cell): 97%

Compound: Cc1nccn1-c1ccc([N+](=O)[O-])c(Nc2ccc3[nH]ncc3c2)n1 [Compound 2, 2-(1H-indazol-5-yl)amino-6-(2-methylimidazol-1-yl)-3-nitropyridine]
- inhibition at 1 µM [1]: 70%
- Cell viability (%) Calvarial cell (Calvarial cell): 104%

Compound: O=[N+]([O-])c1ccc(NCc2cccnc2)nc1Nc1ccc2[nH]ncc2c1 [Compound 45, 2-(1H-indazol-5-yl)amino-6-[(3-pyridyl)methylamino]-3-nitropyridine]
- Cell viability (%) Calvarial cell (Calvarial cell): 103%

Compound: O=[N+]([O-])c1ccc(NCCN2CCOCC2)nc1Nc1ccc2cn[nH]c2c1 [Compound 28, 2-(1H-indazol-6-yl)amino-6-(2-morpholinoethylamino)-3-nitropyridine]
- inhibition at 1 µM [1]: 74%
- Cell viability (%) Calvarial cell (Calvarial cell): 104%

Compound: CN1CCN(c2ccc([N+](=O)[O-])c(Nc3ccc4cn[nH]c4c3)n2)CC1 [Compound 40, 2-(1H-indazol-6-yl)amino-6-(4-methylpiperazin-1-yl)-3-nitropyridine]
- Cell viability (%) Calvarial cell (Calvarial cell): 95%

Compound: O=[N+]([O-])c1ccc(N2CCC(O)CC2)nc1Nc1ccc2cn[nH]c2c1 [Compound 41, 2-(1H-indazol-6-yl)amino-6-(4-hydroxypiperidino)-3-nitropyridine]
- Cell viability (%) Calvarial cell (Calvarial cell): 98%

Compound: O=[N+]([O-])c1ccc(NCCCn2ccnc2)nc1Nc1ccc2[nH]ncc2c1 [Compound 29, 2-(1H-indazol-5-yl)amino-6-[3-(imidazol-1-yl)propylamino]-3-nitropyridine]
- inhibition at 1 µM [1]: 73%
- Cell viability (%) Calvarial cell (Calvarial cell): 117%

Compound: O=[N+]([O-])c1ccc(N2CCN(CCO)CC2)nc1Nc1ccc2[nH]ncc2c1 [Compound 15, 2-(1H-indazol-5-yl)amino-6-[4-(2-hydroxyethyl)piperazin-1-yl]-3-nitropyridine]
- inhibition at 1 µM [1]: 98%
- Cell viability (%) Calvarial cell (Calvarial cell): 90%

Compound: CC1(C)CN(c2ccc([N+](=O)[O-])c(Nc3ccc4[nH]ncc4c3)n2)CC(C)(C)N1 [Compound 13, 2-(1H-indazol-5-yl)amino-6-(2,2,6,6-tetramethylpiperazin-4-yl)-3-nitropyridine]
- inhibition at 1 µM [1]: 88%
- Cell viability (%) Calvarial cell (Calvarial cell): 94%

Compound: NC1CCCCC1Nc1ccc([N+](=O)[O-])c(Nc2ccc3[nH]ncc3c2)n1 (centres unmarked) [Compound 30, 2-(1H-indazol-5-yl)amino-6-[(2-aminocyclohexyl)amino]-3-nitropyridine]
- inhibition at 1 µM [1]: 100%
- Cell viability (%) Calvarial cell (Calvarial cell): 114%

Compound: NCCCCNc1ccc([N+](=O)[O-])c(Nc2ccc3[nH]ncc3c2)n1 [Compound 50, 2-(1H-indazol-5-yl)amino-6-(4-amino-n-butylamino)-3-nitropyridine]
- inhibition at 1 µM [1]: 100%
- Cell viability (%) Calvarial cell (Calvarial cell): 95%

Compound: O=[N+]([O-])c1ccc(NCCc2ccccn2)nc1Nc1ccc2[nH]ncc2c1 [Compound 27, 2-(1H-indazol-5-yl)amino-6-[(2-pyridyl)ethylamino]-3-nitropyridine]
- inhibition at 1 µM [1]: 90%
- Cell viability (%) Calvarial cell (Calvarial cell): 97%

Compound: CC1CN(c2ccc([N+](=O)[O-])c(Nc3ccc4[nH]ncc4c3)n2)CC(C)N1 (centres unmarked) [Compound 44, 2-(1H-indazol-5-yl)amino-6-(3,5-dimethylpiperazin-1-yl)-3-nitropyridine]
- inhibition at 1 µM [1]: 90%
- Cell viability (%) Calvarial cell (Calvarial cell): 96%

Compound: Nc1ccc([N+](=O)[O-])c(Nc2ccc3[nH]ncc3c2)n1 [Compound 32, 2-(1H-indazol-5-yl)amino-6-amino-3-nitropyridine]
- inhibition at 1 µM [1]: 100%
- Cell viability (%) Calvarial cell (Calvarial cell): 99%

Compound: CN1CCN(Nc2ccc([N+](=O)[O-])c(Nc3ccc4[nH]ncc4c3)n2)CC1 [Compound 42, 2-(1H-indazol-5-yl)amino-6-[(4-methylpiperazin-1-yl)amino]-3-nitropyridine]
- Cell viability (%) Calvarial cell (Calvarial cell): 106%
